Reference: PMC2956696, “A novel antiangiogenic peptide derived from hepatocyte growth factor inhibits neovascularization in vitro and in vivo” (Molecular Vision, 2010)
No end group written: not given here.

What was measured:
RF/6A cells [1] = assay: Cell viability with H-RN alone (MTS); format: cell-based, rhesus macaque; conditions: any concentration tested, vs culture medium group
Experimental: A cell proliferation assay was performed as described previously. A colorimetric MTS (3-(4,5-dimeth-ylthiazol-2-yl)-5-(3-carboxymethoxyphenol)-2-(4-sulphophenyl)-2H-tetrazolium) assay (CellTiter 96 AQ; Promega, Madison, WI) was used according to the manufacturer’s instructions. Briefly, cells were seeded onto a 96-well plate (4.8×10^3 cells/well). After 24 h, cells were serum-starved overnight, and then treated with 100 ng/ml VEGF and various doses of H-RN or H-FT (0, 1 μM, 10 μM, 100 μM, or 1 mM) in 100 μl of serum-free medium for an additional 24 h. In positive control group, 100 μl of serum-free medium contains 100 ng/ml VEGF and 0.25 or 2.5 mg/ml bevacizumab (Avastin®, Hoffmann-La Roche Ltd., Basel, Switzerland), and the negative control group contains 100 ng/ml VEGF and a scrambled peptide at concentrations of 1 μM, 10 μM, 100 μM, or 1 mM. […] The absorbance at 490 nm was recorded using a microplate reader (Bio-Rad, Model 680, Hercules, CA). […]
RF/6A cells were exposed for 24 h to VEGF (100 ng/ml), or to VEGF combined with various concentrations of bevacizumab, H-RN, or H-FT. […] At the highest dose of H-RN tested (1 mM), the mean absorbance value was very close to that of the control group (0.735 versus 0.673), though this inhibitory effect was not as strong as that of 2.5 mg/ml bevacizumab (0.735 versus 0.615). […]

RF/6A cells [2] = assay: VEGF-stimulated cell proliferation assay (MTS); format: cell-based, rhesus macaque; conditions: 24 h
Experimental: A cell proliferation assay was performed as described previously. A colorimetric MTS (3-(4,5-dimeth-ylthiazol-2-yl)-5-(3-carboxymethoxyphenol)-2-(4-sulphophenyl)-2H-tetrazolium) assay (CellTiter 96 AQ; Promega, Madison, WI) was used according to the manufacturer’s instructions. Briefly, cells were seeded onto a 96-well plate (4.8×10^3 cells/well). After 24 h, cells were serum-starved overnight, and then treated with 100 ng/ml VEGF and various doses of H-RN or H-FT (0, 1 μM, 10 μM, 100 μM, or 1 mM) in 100 μl of serum-free medium for an additional 24 h. In positive control group, 100 μl of serum-free medium contains 100 ng/ml VEGF and 0.25 or 2.5 mg/ml bevacizumab (Avastin®, Hoffmann-La Roche Ltd., Basel, Switzerland), and the negative control group contains 100 ng/ml VEGF and a scrambled peptide at concentrations of 1 μM, 10 μM, 100 μM, or 1 mM. After completion of the treatment, 20 μl of the 3-(4,5-dimethylthiazol-2-yl)-5-(3-carboxymethoxyphenol)-2-(4-sulphophenyl)-2H-tetrazolium (MTS) reagent were pipetted into each well and incubated for 4 h. The absorbance at 490 nm was recorded using a microplate reader (Bio-Rad, Model 680, Hercules, CA). Each group was tested at least in triplicate, and the assays were repeated a minimum of three times.

RF/6A cells [3] = assay: VEGF-driven cell migration assay (Transwell); format: cell-based, rhesus macaque; conditions: 100 ng/ml VEGF, 24 h, H-FT 1 nM to 1 µM, bevacizumab both concentrations
Experimental: A cell migration assay was performed as described previously, with modification as below. Briefly, RF/6A cells were starved overnight, trypsinized, and suspended at a final concentration of 5×10^5 cells/ml. Various concentrations of bevacizumab or peptides were preincubated with the cells for 30 min at 37 °C before seeding into the Transwell chambers (pretreated by culture medium, 10 mm diameter, 8.0 µm pore size; Corning Inc., New York, NY), the 5×10^4 cells were added to each upper chamber. VEGF (100 ng/ml) was placed into the lower chamber. The assembled cell-culture insert chamber was then incubated at 37 °C for 24 h. After removing the nonmigrating cells in the upper chambers with a cotton swab, migrated cells on the lower surface of the porous membrane were fixed, stained with Gram stain, and photographed under a light microscope (Olympus, Tokyo, Japan). Five random fields (×200) were chosen in each insert, and the cell number was quantified manually. Each experiment was repeated three times.

RF/6A cells [4] = assay: Endothelial cell tube formation assay on Matrigel; format: cell-based, rhesus macaque; conditions: 100 ng/ml VEGF, 6 h, peptides 100 nM-1 mM, bevacizumab both concentrations
Experimental: A tube formation assay was performed as previously described. The 96 well culture plate were coated with Matrigel™ (BD Biosciences, Bedford, MA) according to the manufacturer’s instructions. RF/6A cells (2.5×10^4 in number) were preincubated with various concentrations of bevacizumab or peptides (100 nM–1 mM) before being seeded on coated plates in a serum-free medium containing VEGF 100 ng/ml, and then incubated at 37 °C for 6 h. Tube formation was observed using an inverted phase contrast microscope (Olympus, Tokyo, Japan). Images were captured with a digital camera (Olympus). The degree of tube formation was quantified by measuring the length of tubes in three randomly chosen fields (with magnification of ×100) from each well using the Image-Pro Plus Program (version 5.1; Media Cybernetics, Inc.). Each group was tested in triplicate. Each experiment was repeated three times.

| Substance | Peptide remaining after 48 h | Cell viability with peptide alone (in words) (RF/6A cells [1]) | Inhibition of VEGF-induced cell proliferation (in words) (RF/6A cells [2]; 100 ng/ml VEGF, peptides 1 μM-1 mM, bevacizumab 2.5 mg/ml) | Mean absorbance value (490 nm, MTS), VEGF-induced proliferation (RF/6A cells [2]; 2.5 mg/ml bevacizumab + 100 ng/ml VEGF, serum-free medium, control group 0.673) | Inhibition of VEGF-induced cell migration (in words) (RF/6A cells [3]) | Inhibition of VEGF-induced tube formation (in words) (RF/6A cells [4]) |
| --- | --- | --- | --- | --- | --- | --- |
| H-FTSNPEVRYEV-OH | > 90% | – | – | – | – | – |
| RNPRGEEGGPW [H-RN] | > 90% | cell viability was not affected | – | – | – | – |
| bevacizumab | – | – | strongly inhibited | 0.615 | effectively inhibited cell migration | strongly inhibited |
